No end group written: not given here.
Test system: serum samples from patients infected with group O HIV-1 retroviruses
Assay: Immunoenzymatic test: Test No. 2 (immunoreactivity with diluted sera)
Format: binding, human
Details: for Number of samples: sera of Table V; for Number of samples / ABSORBANCE (OD): solid phase peptide 2 μg/ml; for ABSORBANCE (OD): cyclized; for immunoreactivity compared with the reference peptides (in words): summary of Tables V and VI
Excerpt: The serum samples from patients infected with group O HIV-1 retroviruses were obtained by the Yaounde Pasteur Centre in Cameroon and were serotyped group O according to the serological algorithm described in AIDS (1977), 11, pp. 445-453. A genotyped sample (Maryland) is obtained from the United States. These samples were previously diluted in negative human serum at the dilutions given in Table V, in order to have a sufficient volume for the different immunoreactivity tests.
The synthetic peptides used were dissolved in water at a concentration of 1 mg/ml (stock solution). For the solid phase sensitization step (“coating”), the procedure was carried out as described for Example 2.
The serum samples were diluted 1/5 with a skimmed milk solution (citrate buffer supplemented with 0.01% of phenol red, 0.25% of chloroform and 0.25% of Kathon®), deposited in the wells of plates and incubated for 30 min at 40° C.
After washing with a Tris-NaCl buffer solution pH 7.4 containing 0.1% of Tween® 20 and 0.001% of sodium merthiolate, 100 μl of a solution of conjugate consisting of horseradish peroxidase-labelled anti-human IgG and IgM goat antibodies, containing as preservative 0.01% of sodium merthiolate, in solution in a citrate buffer solution supplemented with 30% glycerol and 25% normal foetal calf serum, were added to each well of the plates and then they were incubated for 30 min at 40° C.
After washing with a Tris-NaCl buffer solution pH 7.4 containing 0.1% of Tween® 20 and 0.001% of sodium merthiolate, the colour was developed as described in Example 2.
The relative absorbance (OD) (A490-A620) read in each well is proportional to the immunoreactivity of each peptide. It indicates the ability of each peptide to react with the biological sample with which the test is carried out.
The reactivity of the peptides of the invention, peptides No. 10 (14B), No. 11 (18B), No. 12 (19B), No. 14 (21B), No. 15 (22B), No. 16 (23B) all in cyclized form, was compared with that of three homologous synthetic peptides having, as sequence, a portion of the natural sequence of the envelope (env) of a group O HIV-1 retrovirus. These peptides are two peptides derived from the VAU isolate—the peptide VAU 22 AA and the peptide VAU 35 AA—and the peptide MVP 5180 (designated “MVP 5180” in Table V). The peptides VAU 22 AA and VAU 35 AA (whose structure is indicated in Example 2) and the peptide MVP 5180 comprise an immunodominant epitope of gp41.
All these peptides were used in cyclized form. The sequence of the MVP 5180 peptide is the following:
For each peptide tested, the samples were arranged into four classes (a, b, c and d) corresponding to various levels of relative absorbance read at the wavelengths A492-A620: • for a: OD<0.100, • for b: 0.100<OD<0.500, • for c: 0.500<OD<1.000, • for d: OD>1.000, thus making it possible to evaluate the degree of immunoreactivity of the peptides.

“ALETLLQNQQLLNIWGCRGRLVCYTSVRWNET [PEPTIDE No. 12 (19B)]” showed a Number of samples (CLASS A (a: OD<0.100)) of 0, a Number of samples (CLASS B (b: 0.100<OD<0.500)) of 11 and a Number of samples (CLASS C (c: 0.500<OD<1.000)) of 2. For the same sequence, the Number of samples (CLASS D (d: OD>1.000)) was 1, the “ABSORBANCE (OD)” value (serum 258 OUDI at 1/100) was 0.226 and the “ABSORBANCE (OD)” value (serum 625 at 1/50) was 0.264. For the same sequence, the “ABSORBANCE (OD)” value (serum 3600 at 1/100) was 0.249, the “ABSORBANCE (OD)” value (serum 3613 at ¼00) was 0.773 and the “ABSORBANCE (OD)” value (serum 3653 at 1/10) was 0.247. The “ABSORBANCE (OD)” value (serum 4280 at 1/50) was 0.201, the “ABSORBANCE (OD)” value (serum 6111 at 1/100) was 0.202 and the “ABSORBANCE (OD)” value (serum DJOU at 1/100) was 0.419. The “ABSORBANCE (OD)” value (serum DO15 at 1/100) was 1.286, the “ABSORBANCE (OD)” value (serum MBASSI at 1/100) was 0.747 and the “ABSORBANCE (OD)” value (serum Maryland at ¼00) was 0.285. The “ABSORBANCE (OD)” value (serum NGO at 1/50) was 0.193, the “ABSORBANCE (OD)” value (serum NJEM at 1/100) was 0.391 and the “ABSORBANCE (OD)” value (serum WANG at 1/50) was 0.124.
For “ALETLLQNQQLLNSWGCRGRLVCYTSVRWNET [PEPTIDE No. 11 (18B)]”, the Number of samples (CLASS A (a: OD<0.100)) was 0, the Number of samples (CLASS B (b: 0.100<OD<0.500)) was 9 and the Number of samples (CLASS C (c: 0.500<OD<1.000)) was 4. The Number of samples (CLASS D (d: OD>1.000)) was 1, the “ABSORBANCE (OD)” value (serum 258 OUDI at 1/100) was 0.373 and the “ABSORBANCE (OD)” value (serum 625 at 1/50) was 0.338. The “ABSORBANCE (OD)” value (serum 3600 at 1/100) was 0.360, the “ABSORBANCE (OD)” value (serum 3613 at ¼00) was 0.837 and the “ABSORBANCE (OD)” value (serum 3653 at 1/10) was 0.337. The “ABSORBANCE (OD)” value (serum 4280 at 1/50) was 0.686, the “ABSORBANCE (OD)” value (serum 6111 at 1/100) was 0.348 and the “ABSORBANCE (OD)” value (serum DJOU at 1/100) was 0.482. For the same sequence, the “ABSORBANCE (OD)” value (serum DO15 at 1/100) was 0.859, the “ABSORBANCE (OD)” value (serum MBASSI at 1/100) was 1.150 and the “ABSORBANCE (OD)” value (serum Maryland at ¼00) was 0.370. The “ABSORBANCE (OD)” value (serum NGO at 1/50) was 0.335, the “ABSORBANCE (OD)” value (serum NJEM at 1/100) was 0.811 and the “ABSORBANCE (OD)” value (serum WANG at 1/50) was 0.234.
“LNQQRLLNSWGCKGRLVCYTSV [PEPTIDE No. 14 (21B)]” was tested, and the Number of samples (CLASS A (a: OD<0.100)) was 1, the Number of samples (CLASS B (b: 0.100<OD<0.500)) was 3 and the Number of samples (CLASS C (c: 0.500<OD<1.000)) was 4. For the same sequence, the Number of samples (CLASS D (d: OD>1.000)) was 6, the “ABSORBANCE (OD)” value (serum 258 OUDI at 1/100) was 0.764 and the “ABSORBANCE (OD)” value (serum 625 at 1/50) was 2.045. For the same sequence, the “ABSORBANCE (OD)” value (serum 3600 at 1/100) was 0.716, the “ABSORBANCE (OD)” value (serum 3613 at ¼00) was 1.508 and the “ABSORBANCE (OD)” value (serum 3653 at 1/10) was 0.072. The “ABSORBANCE (OD)” value (serum 4280 at 1/50) was 0.286, the “ABSORBANCE (OD)” value (serum 6111 at 1/100) was 0.850 and the “ABSORBANCE (OD)” value (serum DJOU at 1/100) was 1.998. For the same sequence, the “ABSORBANCE (OD)” value (serum DO15 at 1/100) was 3.357, the “ABSORBANCE (OD)” value (serum MBASSI at 1/100) was 2.134 and the “ABSORBANCE (OD)” value (serum Maryland at ¼00) was 0.734. For the same sequence, the “ABSORBANCE (OD)” value (serum NGO at 1/50) was 0.157, the “ABSORBANCE (OD)” value (serum NJEM at 1/100) was 0.277 and the “ABSORBANCE (OD)” value (serum WANG at 1/50) was 2.397. The “immunoreactivity compared with the reference peptides (in words)” value was “most immunoreactive”.
“RLNSWGCKGRLVCYTSV [PEPTIDE No. 16 (23B)]” was tested, and the Number of samples (CLASS A (a: OD<0.100)) was 2, the Number of samples (CLASS B (b: 0.100<OD<0.500)) was 2 and the Number of samples (CLASS C (c: 0.500<OD<1.000)) was 1. For the same sequence, the Number of samples (CLASS D (d: OD>1.000)) was 9, the “ABSORBANCE (OD)” value (serum 258 OUDI at 1/100) was 1.692 and the “ABSORBANCE (OD)” value (serum 625 at 1/50) was 1.791. The “ABSORBANCE (OD)” value (serum 3600 at 1/100) was 0.933, the “ABSORBANCE (OD)” value (serum 3613 at ¼00) was 1.679 and the “ABSORBANCE (OD)” value (serum 3653 at 1/10) was 0.406. The “ABSORBANCE (OD)” value (serum 4280 at 1/50) was 0.033, the “ABSORBANCE (OD)” value (serum 6111 at 1/100) was 1.009 and the “ABSORBANCE (OD)” value (serum DJOU at 1/100) was 2.166. For the same sequence, the “ABSORBANCE (OD)” value (serum DO15 at 1/100) was 3.038, the “ABSORBANCE (OD)” value (serum MBASSI at 1/100) was 2.683 and the “ABSORBANCE (OD)” value (serum Maryland at ¼00) was 1.229. For the same sequence, the “ABSORBANCE (OD)” value (serum NGO at 1/50) was 0.110, the “ABSORBANCE (OD)” value (serum NJEM at 1/100) was 0.025 and the “ABSORBANCE (OD)” value (serum WANG at 1/50) was 1.290. The “immunoreactivity compared with the reference peptides (in words)” value was “most immunoreactive”.
“RALETLLNQQRLLNSWGCKGRLVCYTSV [PEPTIDE No. 15 (22B)]” was tested, and the Number of samples (CLASS A (a: OD<0.100)) was 0, the Number of samples (CLASS B (b: 0.100<OD<0.500)) was 2 and the Number of samples (CLASS C (c: 0.500<OD<1.000)) was 4. For the same sequence, the Number of samples (CLASS D (d: OD>1.000)) was 8, the “ABSORBANCE (OD)” value (serum 258 OUDI at 1/100) was 1.184 and the “ABSORBANCE (OD)” value (serum 625 at 1/50) was 2.122. For the same sequence, the “ABSORBANCE (OD)” value (serum 3600 at 1/100) was 0.801, the “ABSORBANCE (OD)” value (serum 3613 at ¼00) was 1.627 and the “ABSORBANCE (OD)” value (serum 3653 at 1/10) was 0.380. For the same sequence, the “ABSORBANCE (OD)” value (serum 4280 at 1/50) was 0.689, the “ABSORBANCE (OD)” value (serum 6111 at 1/100) was 1.207 and the “ABSORBANCE (OD)” value (serum DJOU at 1/100) was 2.088. For the same sequence, the “ABSORBANCE (OD)” value (serum DO15 at 1/100) was 3.693, the “ABSORBANCE (OD)” value (serum MBASSI at 1/100) was 2.010 and the “ABSORBANCE (OD)” value (serum Maryland at ¼00) was 0.844. For the same sequence, the “ABSORBANCE (OD)” value (serum NGO at 1/50) was 0.315, the “ABSORBANCE (OD)” value (serum NJEM at 1/100) was 0.939 and the “ABSORBANCE (OD)” value (serum WANG at 1/50) was 2.680. The “immunoreactivity compared with the reference peptides (in words)” value was “most immunoreactive”.
For “RLQALETLIQNQQRLNLWGCKGKLICYTSVKWNTS (cysteine pairing not given here) [MVP 5180, reference compound]”, the Number of samples (CLASS A (a: OD<0.100)) was 1, the Number of samples (CLASS B (b: 0.100<OD<0.500)) was 12 and the Number of samples (CLASS C (c: 0.500<OD<1.000)) was 1. The Number of samples (CLASS D (d: OD>1.000)) was 0, the “ABSORBANCE (OD)” value (serum 258 OUDI at 1/100) was 0.116 and the “ABSORBANCE (OD)” value (serum 625 at 1/50) was 0.202. For the same sequence, the “ABSORBANCE (OD)” value (serum 3600 at 1/100) was 0.206, the “ABSORBANCE (OD)” value (serum 3613 at ¼00) was 0.478 and the “ABSORBANCE (OD)” value (serum 3653 at 1/10) was 0.401. The “ABSORBANCE (OD)” value (serum 4280 at 1/50) was 0.382, the “ABSORBANCE (OD)” value (serum 6111 at 1/100) was 0.226 and the “ABSORBANCE (OD)” value (serum DJOU at 1/100) was 0.203. The “ABSORBANCE (OD)” value (serum DO15 at 1/100) was 0.673, the “ABSORBANCE (OD)” value (serum MBASSI at 1/100) was 0.248 and the “ABSORBANCE (OD)” value (serum Maryland at ¼00) was 0.241. For the same sequence, the “ABSORBANCE (OD)” value (serum NGO at 1/50) was 0.184, the “ABSORBANCE (OD)” value (serum NJEM at 1/100) was 0.146 and the “ABSORBANCE (OD)” value (serum WANG at 1/50) was 0.075.

— patent US7053175B1, “Synthetic peptides useful in biological assays for detecting infections caused by group O HIV-1 viruses” (Bio-Rad Pasteur, priority 1997, dated 2006)
